# Assay results: patent publication US20240018122A1, “PYRIDAZINYL AMINO DERIVATIVES AS ALK5 INHIBITORS” (CHIESI FARMACEUTICI S.P.A., priority 2020, published 2024)
# Target: human ALK5 (Homo sapiens (Human), UniProt P36897)
# Test: ADP-GLO Kinases assay, inhibitory activity on ALK5
# Format: biochemical
# Conditions: not given
# human ALK5, sequence (P36897 80-503 limits assumed): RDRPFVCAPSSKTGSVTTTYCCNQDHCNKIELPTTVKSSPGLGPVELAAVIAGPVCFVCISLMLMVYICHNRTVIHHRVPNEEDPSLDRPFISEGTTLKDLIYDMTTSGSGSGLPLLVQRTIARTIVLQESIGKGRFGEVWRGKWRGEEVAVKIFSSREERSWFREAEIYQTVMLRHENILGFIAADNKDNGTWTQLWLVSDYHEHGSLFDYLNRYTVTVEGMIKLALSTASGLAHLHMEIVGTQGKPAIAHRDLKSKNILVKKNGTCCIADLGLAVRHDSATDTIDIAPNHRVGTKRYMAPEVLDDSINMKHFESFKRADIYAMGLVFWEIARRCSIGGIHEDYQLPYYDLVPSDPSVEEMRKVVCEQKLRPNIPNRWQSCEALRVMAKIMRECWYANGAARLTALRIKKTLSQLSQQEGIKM
row,Structure (SMILES),IC50 [nM]
1,"CN1CCC(N2CCN(C(=O)Oc3ccc4c(Nc5cnnc(-c6cc(Cl)ccc6F)c5)ccnc4c3)CC2)CC1 [Example 103, 4-{[6-(5-Chloro-2-Fluorophenyl)Pyridazin-4-Yl]Amino}Quinolin-7-Yl 4-(1-Methylpiperidin-4-Yl)Piperazine-1-Carboxylate]",1 to 5
2,"CN1CCN(CCN(C)C(=O)Oc2ccc3c(Nc4cnnc(-c5cc(Cl)ccc5F)c4)ccnc3c2)CC1 [Example 45, 4-{[6-(5-Chloro-2-Fluorophenyl)Pyridazin-4-Yl]Amino}Quinolin-7-Yl N-Methyl-N-[2-(4-Methylpiperazin-1-Yl)Ethyl]Carbamate]",1 to 5

# Same assay, conditions: purified recombinant human ALK5 2.6 nM, TGFβ1 peptide substrate, 25° C, 150 min incubation, ADP-Glo detection; read-out: ALK5 IC50
row,Structure (SMILES),IC50 [nM]
1,"OCCN1CCN(CCOc2ccc3c(Nc4cnnc(-c5cc(Cl)ccc5F)c4)ccnc3c2)CC1 [Example 72, 2-(4-{2-[(4-{[6-(5-Chloro-2-Fluorophenyl)Pyridazin-4-Yl]Amino}Quinolin-7-Yl)Oxy]Ethyl}Piperazin-1-Yl)Ethan-1-Ol]",< 1
2,"CN1CCC(CCNC(=O)c2ccc3c(Nc4cnnc(-c5cc(Cl)ccc5F)c4)ccnc3c2)CC1 [Example 14, 4-{[6-(5-Chloro-2-Fluorophenyl)Pyridazin-4-Yl]Amino}-N-[2-(1-Methylpiperidin-4-Yl)Ethyl]Quinoline-7-Carboxamide]",< 1
3,"Fc1ccc(Cl)cc1-c1cc(Nc2ccnc3cc(OCCN4CCN(CC(F)(F)F)CC4)ccc23)cnn1 [Example 41, N-[6-(5-Chloro-2-Fluorophenyl)Pyridazin-4-Yl]-7-{2-[4-(2,2,2-Trifluoroethyl)Piperazin-1-Yl]Ethoxy}Quinolin-4-Amine]",< 1
4,"CS(=O)(=O)N1CCN(CCC(=O)Nc2cc(Nc3cnnc(-c4cc(Cl)ccc4F)c3)ccn2)CC1 [Example 34, N-(4-{[6-(5-Chloro-2-Fluorophenyl)Pyridazin-4-Yl]Amino}Pyridin-2-Yl)-3-(4-Methanesulfonylpiperazin-1-Yl)Propanamide]",1 to 5
5,"Cc1nnc(-c2cc(Cl)ccc2F)cc1Nc1ccnc(NC(=O)c2cnn(CCN(C)C)c2)c1 [Example 156, N-(4-{[6-(5-Chloro-2-Fluorophenyl)-3-Methylpyridazin-4-Yl]Amino}Pyridin-2-Yl)-1-[2-(Dimethylamino)Ethyl]-1H-Pyrazole-4-Carboxamide]",< 1
6,"CN1CCN(CCOc2ccc3c(Nc4cc(-c5cc(Cl)ccc5F)nnc4C(F)(F)F)ccnc3c2)CC1 [Example 183, N-[6-(5-Chloro-2-Fluorophenyl)-3-(Trifluoromethyl)Pyridazin-4-Yl]-7-[2-(4-Methylpiperazin-1-Yl)Ethoxy]Quinolin-4-Amine]",< 1
7,"CN1CCCN(CCOc2ccc3c(Nc4cnnc(-c5cc(Cl)ccc5F)c4)ccnc3c2)C1 [Example 62, N-[6-(5-Chloro-2-Fluorophenyl)Pyridazin-4-Yl]-7-[2-(3-Methyl-1,3-Diazinan-1-Yl)Ethoxy]Quinolin-4-Amine]",< 1
8,"CN(C)CCN1CCN(C(=O)Oc2ccc3c(Nc4cnnc(-c5cc(Cl)ccc5F)c4)ccnc3c2)CC1 [Example 61, 4-{[6-(5-Chloro-2-Fluorophenyl)Pyridazin-4-Yl]Amino}Quinolin-7-Yl 4-[2-(Dimethylamino)Ethyl]Piperazine-1-Carboxylate]",< 1
9,"COC(=O)N(C)CCN1CCN(CC(=O)Nc2cc(Nc3cc(-c4cc(Cl)ccc4F)nnc3CO)ccn2)CC1 [Example 175, Methyl N-[2-(4-{[(4-{[6-(5-Chloro-2-Fluorophenyl)-3-(Hydroxymethyl)Pyridazin-4-Yl]Amino}Pyridin-2-Yl)Carbamoyl]Methyl}Piperazin-1-Yl)Ethyl]-N-Methylcarbamate]",< 1
10,"NCCN1CCN(CCOc2ccc3c(Nc4cnnc(-c5cc(Cl)ccc5F)c4)ccnc3c2)CC1 [Example 66, 7-{2-[4-(2-Aminoethyl)Piperazin-1-Yl]Ethoxy}-N-[6-(5-Chloro-2-Fluorophenyl)Pyridazin-4-Yl]Quinolin-4-Amine]",< 1

# Other lines, results leading:
row,IC50 [nM],Structure (SMILES)
1,< 1,"COC(=O)NCCN1CCN(CCC(=O)Nc2cc(Nc3cc(-c4cc(Cl)ccc4F)nnc3C)ccn2)CC1 [Example 82, Methyl N-[2-(4-{2-[(4-{[6-(5-Chloro-2-Fluorophenyl)-3-Methylpyridazin-4-Yl]Amino}Pyridin-2-Yl)Carbamoyl]Ethyl}Piperazin-1-Yl)Ethyl]Carbamate]"
2,< 1,"Cc1nnc(-c2cc(Cl)ccc2F)cc1Nc1ccnc(NC(=O)CCN2CC[S+]([O-])CC2)c1 [Example 130, N-(4-{[6-(5-Chloro-2-Fluorophenyl)-3-Methylpyridazin-4-Yl]Amino}Pyridin-2-Yl)-3-(1-Oxo-1V-Thiomorpholin-4-Yl)Propanamide]"
3,< 1,"COC(=O)CC1CN(CCC(=O)Nc2cc(Nc3cc(-c4cc(Cl)ccc4F)nnc3C)ccn2)CCN1C (stereo not shown) [Example 98, Methyl 2-(4-{2-[(4-{[6-(5-Chloro-2-Fluorophenyl)-3-Methylpyridazin-4-Yl]Amino}Pyridin-2-Yl)Carbamoyl]Ethyl}-1-Methylpiperazin-2-Yl)Acetate]"
4,< 1,"CNCCN1CCN(CCC(=O)Nc2cc(Nc3cc(-c4cc(Cl)ccc4F)nnc3C)ccn2)CC1 [Example 104, N-(4-{[6-(5-Chloro-2-Fluorophenyl)-3-Methylpyridazin-4-Yl]Amino}Pyridin-2-Yl)-3-{4-[2-(Methylamino)Ethyl]Piperazin-1-Yl}Propanamide]"
5,< 1,"Cc1nnc(-c2cc(Cl)ccc2F)cc1Nc1ccnc(NC(=O)CCN2CCOC3(CN(C)C3)C2)c1 [Example 147, N-(4-{[6-(5-chloro-2-fluorophenyl)-3-methylpyridazin-4-yl]amino}pyridin-2-yl)-3-{2-methyl-5-oxa-2,8-diazaspiro[3.5]nonan-8-yl}propanamide]"
6,< 1,"Cc1nnc(-c2cc(Cl)ccc2F)cc1Nc1ccnc(NC(=O)CN2CCOCC2)c1 [Example 117, N-(4-{[6-(5-Chloro-2-Fluorophenyl)-3-Methylpyridazin-4-Yl]Amino}Pyridin-2-Yl)-2-(Morpholin-4-Yl)Acetamide]"
7,< 1,"Cc1nnc(-c2cc(Cl)ccc2F)cc1Nc1ccnc(NC(=O)CCN2CCN(C)C3(CC3)C2)c1 [Example 135, N-(4-{[6-(5-Chloro-2-Fluorophenyl)-3-Methylpyridazin-4-Yl]Amino}Pyridin-2-Yl)-3-{4-Methyl-4,7-Diazaspiro[2.5]Octan-7-Yl}Propanamide]"
8,< 1,"COC(=O)NCCN1CCN(CC(=O)Nc2cc(Nc3cc(-c4cc(Cl)ccc4F)nnc3C)ccn2)CC1 [Example 109, methyl N-[2-(4-{[(4-{[6-(5-chloro-2-fluorophenyl)-3-methylpyridazin-4-yl]amino}pyridin-2-yl)carbamoyl]methyl}piperazin-1-yl)ethyl]carbamate]"
9,< 1,"COC(=O)N(C)CCN1CCN(CCC(=O)Nc2cc(Nc3cc(-c4cc(Cl)ccc4F)nnc3C)ccn2)CC1 [Example 105, methyl N-[2-(4-{2-[(4-{[6-(5-chloro-2-fluorophenyl)-3-methylpyridazin-4-yl]amino}pyridin-2-yl)carbamoyl]ethyl}piperazin-1-yl)ethyl]-N-methylcarbamate]"
10,< 1,"Cc1nnc(-c2cc(Cl)ccc2F)cc1Nc1ccnc(NC(=O)CCCN2CCCNCC2)c1 [Example 158, N-(4-{[6-(5-Chloro-2-Fluorophenyl)-3-Methylpyridazin-4-Yl]Amino}Pyridin-2-Yl)-4-(1,4-Diazepan-1-Yl)Butanamide]"
